# Measured values published in patent publication US4442044A, “Process for preparing monoesters and diesters of N-alkyl substituted amino methyl phosphonic acid” (priority 1983, dated 1984).
# Assays:
# Assay in all cases: post-emergent herbicidal activity, greenhouse
# Format in all cases: in vivo
# Crabgrass = settings: Table II
# Method in brief: (§1)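 Seeds or propagules sown in compacted top soil, grown 2–3 weeks in greenhouse, then sprayed with compound solution/suspension containing ~0.4% emulsifier at tabulated rates. Injury scored visually versus untreated controls at ~2 and 4 weeks after treatment, expressed as a herbicidal activity index.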
# Canada Thistle = settings: Table I, 4 WAT
# Method in brief: as §1
# Sugar Beet = settings: Table II
# Method in brief: as §1
# Wheat = settings: Table II
# Method in brief: as §1
# Rice = settings: Table II
# Method in brief: as §1
# Morningglory = system: Morningglory
# Method in brief: as §1
# Downy Brome = system: Downy Brome
# Method in brief: as §1
# Yellow Nutsedge = settings: Table I, 4 WAT, 11.2 kg/h
# Method in brief: as §1
# Smartweed = system: Smartweed
# Method in brief: as §1
# Hemp Sesbania = settings: Table II, 4 WAT
# Method in brief: as §1
# Sorghum = settings: Table II
# Method in brief: as §1
# Soybean = settings: Table II
# Method in brief: as §1
# Velvetleaf = system: Velvetleaf
# Method in brief: as §1
# Quackgrass = settings: Table I, 4 WAT
# Method in brief: as §1
# Panicum Spp = settings: Table II
# Method in brief: as §1
# Cocklebur = system: Cocklebur
# Method in brief: as §1
# Lambsquarters = system: Lambsquarters
# Method in brief: as §1
# Wild Buckwheat = settings: Table II
# Method in brief: as §1
# Barnyardgrass = system: Barnyardgrass
# Method in brief: as §1
# Johnsongrass = settings: Table I, 4 WAT
# Method in brief: as §1
compound,measurement,setting,value
"CC(C#N)OP(=O)(O)CNCC(=O)OCCCl (stereo not shown) [Example 7, glycine, N-[[(1-cyanoethoxy)hydroxyphosphinyl]methyl], 2-chloroethyl ester]",post-emergent herbicidal activity index,"Crabgrass; 2 WAT, 0.01 kg/h",2 (50-74% control)
same,post-emergent herbicidal activity index,"Crabgrass; 4 WAT, 0.06 kg/h",3 (75-99% control)
same,post-emergent herbicidal activity index,Canada Thistle; 5.6 kg/h,2 (50-74% control)
same,post-emergent herbicidal activity index,Canada Thistle; 11.2 kg/h,2 (50-74% control)
same,post-emergent herbicidal activity index,"Sugar Beet; 2 WAT, 0.01 kg/h",0 (0-24% control)
same,post-emergent herbicidal activity index,"Sugar Beet; 4 WAT, 0.06 kg/h",0 (0-24% control)
same,post-emergent herbicidal activity index,"Sugar Beet; 4 WAT, 0.28 kg/h",4 (100% control)
same,post-emergent herbicidal activity index,"Sugar Beet; 4 WAT, 1.12 kg/h",3 (75-99% control)
same,post-emergent herbicidal activity index,"Sugar Beet; 4 WAT, 5.6 kg/h",4 (100% control)
same,post-emergent herbicidal activity index,"Wheat; 2 WAT, 0.01 kg/h",0 (0-24% control)
same,post-emergent herbicidal activity index,"Wheat; 4 WAT, 0.06 kg/h",1 (25-49% control)
same,post-emergent herbicidal activity index,"Wheat; 4 WAT, 0.28 kg/h",3 (75-99% control)
same,post-emergent herbicidal activity index,"Wheat; 4 WAT, 1.12 kg/h",3 (75-99% control)
same,post-emergent herbicidal activity index,"Wheat; 4 WAT, 5.6 kg/h",4 (100% control)
same,post-emergent herbicidal activity index,"Rice; 2 WAT, 0.01 kg/h",0 (0-24% control)
same,post-emergent herbicidal activity index,"Rice; 4 WAT, 0.06 kg/h",0 (0-24% control)
same,post-emergent herbicidal activity index,"Rice; 4 WAT, 0.28 kg/h",1 (25-49% control)
same,post-emergent herbicidal activity index,"Rice; 4 WAT, 1.12 kg/h",3 (75-99% control)
same,post-emergent herbicidal activity index,"Rice; 4 WAT, 5.6 kg/h",3 (75-99% control)
same,post-emergent herbicidal activity index,"Morningglory; Table I, 4 WAT, 5.6 kg/h",2 (50-74% control)
same,post-emergent herbicidal activity index,"Morningglory; Table I, 4 WAT, 11.2 kg/h",2 (50-74% control)
same,post-emergent herbicidal activity index,"Morningglory; Table II, 2 WAT, 0.01 kg/h",1 (25-49% control)
same,post-emergent herbicidal activity index,"Morningglory; Table II, 4 WAT, 0.06 kg/h",2 (50-74% control)
same,post-emergent herbicidal activity index,"Morningglory; Table II, 4 WAT, 0.28 kg/h",1 (25-49% control)
same,post-emergent herbicidal activity index,"Morningglory; Table II, 4 WAT, 1.12 kg/h",2 (50-74% control)
same,post-emergent herbicidal activity index,"Morningglory; Table II, 4 WAT, 5.6 kg/h",2 (50-74% control)
same,post-emergent herbicidal activity index,"Downy Brome; Table I, 4 WAT, 5.6 kg/h",2 (50-74% control)
same,post-emergent herbicidal activity index,"Downy Brome; Table I, 4 WAT, 11.2 kg/h",2 (50-74% control)
same,post-emergent herbicidal activity index,"Downy Brome; Table II, 2 WAT, 0.01 kg/h",0 (0-24% control)
same,post-emergent herbicidal activity index,"Downy Brome; Table II, 4 WAT, 0.06 kg/h",1 (25-49% control)
same,post-emergent herbicidal activity index,"Downy Brome; Table II, 4 WAT, 0.28 kg/h",2 (50-74% control)
same,post-emergent herbicidal activity index,"Downy Brome; Table II, 4 WAT, 1.12 kg/h",2 (50-74% control)
same,post-emergent herbicidal activity index,"Downy Brome; Table II, 4 WAT, 5.6 kg/h",3 (75-99% control)
same,post-emergent herbicidal activity index,Yellow Nutsedge,3 (75-99% control)
same,post-emergent herbicidal activity index,"Smartweed; Table I, 4 WAT, 5.6 kg/h",4 (100% control)
same,post-emergent herbicidal activity index,"Smartweed; Table I, 4 WAT, 11.2 kg/h",4 (100% control)
same,post-emergent herbicidal activity index,"Smartweed; Table II, 2 WAT, 0.01 kg/h",0 (0-24% control)
same,post-emergent herbicidal activity index,"Smartweed; Table II, 4 WAT, 0.06 kg/h",1 (25-49% control)
same,post-emergent herbicidal activity index,"Smartweed; Table II, 4 WAT, 0.28 kg/h",4 (100% control)
same,post-emergent herbicidal activity index,"Smartweed; Table II, 4 WAT, 1.12 kg/h",3 (75-99% control)
same,post-emergent herbicidal activity index,"Smartweed; Table II, 4 WAT, 5.6 kg/h",4 (100% control)
same,post-emergent herbicidal activity index,Hemp Sesbania; 0.06 kg/h,0 (0-24% control)
same,post-emergent herbicidal activity index,Hemp Sesbania; 0.28 kg/h,3 (75-99% control)
same,post-emergent herbicidal activity index,Hemp Sesbania; 1.12 kg/h,2 (50-74% control)
same,post-emergent herbicidal activity index,Hemp Sesbania; 5.6 kg/h,4 (100% control)
same,post-emergent herbicidal activity index,"Sorghum; 2 WAT, 0.01 kg/h",0 (0-24% control)
same,post-emergent herbicidal activity index,"Sorghum; 4 WAT, 0.06 kg/h",2 (50-74% control)
same,post-emergent herbicidal activity index,"Sorghum; 4 WAT, 0.28 kg/h",2 (50-74% control)
same,post-emergent herbicidal activity index,"Sorghum; 4 WAT, 1.12 kg/h",2 (50-74% control)
same,post-emergent herbicidal activity index,"Sorghum; 4 WAT, 5.6 kg/h",3 (75-99% control)
same,post-emergent herbicidal activity index,"Soybean; 2 WAT, 0.01 kg/h",0 (0-24% control)
same,post-emergent herbicidal activity index,"Soybean; 4 WAT, 0.06 kg/h",0 (0-24% control)
same,post-emergent herbicidal activity index,"Soybean; 4 WAT, 0.28 kg/h",1 (25-49% control)
same,post-emergent herbicidal activity index,"Soybean; 4 WAT, 1.12 kg/h",2 (50-74% control)
same,post-emergent herbicidal activity index,"Soybean; 4 WAT, 5.6 kg/h",3 (75-99% control)
same,post-emergent herbicidal activity index,"Velvetleaf; Table I, 4 WAT, 5.6 kg/h",3 (75-99% control)
same,post-emergent herbicidal activity index,"Velvetleaf; Table I, 4 WAT, 11.2 kg/h",3 (75-99% control)
same,post-emergent herbicidal activity index,"Velvetleaf; Table II, 2 WAT, 0.01 kg/h",0 (0-24% control)
same,post-emergent herbicidal activity index,"Velvetleaf; Table II, 4 WAT, 0.06 kg/h",1 (25-49% control)
same,post-emergent herbicidal activity index,"Velvetleaf; Table II, 4 WAT, 0.28 kg/h",2 (50-74% control)
same,post-emergent herbicidal activity index,"Velvetleaf; Table II, 4 WAT, 1.12 kg/h",2 (50-74% control)
same,post-emergent herbicidal activity index,"Velvetleaf; Table II, 4 WAT, 5.6 kg/h",3 (75-99% control)
same,post-emergent herbicidal activity index,Quackgrass; 5.6 kg/h,2 (50-74% control)
same,post-emergent herbicidal activity index,Quackgrass; 11.2 kg/h,0 (0-24% control)
same,post-emergent herbicidal activity index,"Panicum Spp; 2 WAT, 0.01 kg/h",0 (0-24% control)
same,post-emergent herbicidal activity index,"Panicum Spp; 4 WAT, 0.06 kg/h",3 (75-99% control)
same,post-emergent herbicidal activity index,"Panicum Spp; 4 WAT, 0.28 kg/h",3 (75-99% control)
same,post-emergent herbicidal activity index,"Panicum Spp; 4 WAT, 1.12 kg/h",4 (100% control)
same,post-emergent herbicidal activity index,"Panicum Spp; 4 WAT, 5.6 kg/h",3 (75-99% control)
same,post-emergent herbicidal activity index,"Cocklebur; Table I, 4 WAT, 5.6 kg/h",4 (100% control)
same,post-emergent herbicidal activity index,"Cocklebur; Table I, 4 WAT, 11.2 kg/h",3 (75-99% control)
same,post-emergent herbicidal activity index,"Cocklebur; Table II, 2 WAT, 0.01 kg/h",0 (0-24% control)
same,post-emergent herbicidal activity index,"Cocklebur; Table II, 4 WAT, 0.06 kg/h",0 (0-24% control)
same,post-emergent herbicidal activity index,"Cocklebur; Table II, 4 WAT, 0.28 kg/h",2 (50-74% control)
same,post-emergent herbicidal activity index,"Cocklebur; Table II, 4 WAT, 1.12 kg/h",2 (50-74% control)
same,post-emergent herbicidal activity index,"Cocklebur; Table II, 4 WAT, 5.6 kg/h",3 (75-99% control)
same,post-emergent herbicidal activity index,"Lambsquarters; Table I, 4 WAT, 5.6 kg/h",4 (100% control)
same,post-emergent herbicidal activity index,"Lambsquarters; Table I, 4 WAT, 11.2 kg/h",3 (75-99% control)
same,post-emergent herbicidal activity index,"Lambsquarters; Table II, 2 WAT, 0.01 kg/h",1 (25-49% control)
same,post-emergent herbicidal activity index,"Lambsquarters; Table II, 4 WAT, 0.06 kg/h",0 (0-24% control)
same,post-emergent herbicidal activity index,"Lambsquarters; Table II, 4 WAT, 0.28 kg/h",4 (100% control)
same,post-emergent herbicidal activity index,"Lambsquarters; Table II, 4 WAT, 1.12 kg/h",2 (50-74% control)
same,post-emergent herbicidal activity index,"Lambsquarters; Table II, 4 WAT, 5.6 kg/h",2 (50-74% control)
same,post-emergent herbicidal activity index,"Wild Buckwheat; 2 WAT, 0.01 kg/h",0 (0-24% control)
same,post-emergent herbicidal activity index,"Wild Buckwheat; 4 WAT, 0.06 kg/h",0 (0-24% control)
same,post-emergent herbicidal activity index,"Wild Buckwheat; 4 WAT, 0.28 kg/h",2 (50-74% control)
same,post-emergent herbicidal activity index,"Wild Buckwheat; 4 WAT, 1.12 kg/h",2 (50-74% control)
same,post-emergent herbicidal activity index,"Wild Buckwheat; 4 WAT, 5.6 kg/h",2 (50-74% control)
same,post-emergent herbicidal activity index,"Barnyardgrass; Table I, 4 WAT, 5.6 kg/h",3 (75-99% control)
same,post-emergent herbicidal activity index,"Barnyardgrass; Table I, 4 WAT, 11.2 kg/h",2 (50-74% control)
same,post-emergent herbicidal activity index,"Barnyardgrass; Table II, 2 WAT, 0.01 kg/h",0 (0-24% control)
same,post-emergent herbicidal activity index,"Barnyardgrass; Table II, 4 WAT, 0.06 kg/h",2 (50-74% control)
same,post-emergent herbicidal activity index,"Barnyardgrass; Table II, 4 WAT, 0.28 kg/h",2 (50-74% control)
same,post-emergent herbicidal activity index,"Barnyardgrass; Table II, 4 WAT, 1.12 kg/h",3 (75-99% control)
same,post-emergent herbicidal activity index,"Barnyardgrass; Table II, 4 WAT, 5.6 kg/h",3 (75-99% control)
same,post-emergent herbicidal activity index,Johnsongrass; 5.6 kg/h,1 (25-49% control)
same,post-emergent herbicidal activity index,Johnsongrass; 11.2 kg/h,0 (0-24% control)
